# Test results from ChEMBL document CHEMBL3351706, “Identification of trichostatin derivatives from Streptomyces sp. CPCC 203909” (Bioorg Med Chem Lett, 2015).
# What was measured:
# HeLa = test: Cytotoxicity against human HeLa cells after 96 hrs by MTT assay; assay type: functional, cell-based
# HepG2 = test: Cytotoxicity against human HepG2 cells after 96 hrs by MTT assay; assay type: functional, cell-based; settings: HepG2, 96 h
# U2OS = test: Cytotoxicity against human U2OS cells after 96 hrs by MTT assay; assay type: functional, cell-based
# HEK293 = test: Cytotoxicity against human HEK293 cells after 96 hrs by MTT assay; assay type: cell-based; settings: HEK293, 96 h
# [1] = Cytotoxicity against human LO2 cells after 96 hrs by MTT assay; assay type: cell-based; settings: L02, 96 h
# [2] = Up-regulation of transcriptional activity of human CLA-1 promoter region -1055 to -62bp transfected in HepG2 cells by luciferase reporter gene assay; assay type: cell-based
EC50 [2],Structure (SMILES),IC50 (HeLa),IC50 (HepG2),IC50 (U2OS),IC50 (HEK293),IC50 [1]
14.3 µM,CNc1ccc(C(=O)[C@](C)(O)/C=C(C)/C=C/C(=O)NO)cc1,> 200 µM,> 200 µM,> 200 µM,14.2 µM,15.5 µM
2.39 µM,CC(/C=C/C(N)=O)=C\[C@@H](C)C(=O)c1ccc(N(C)C)cc1,> 200 µM,> 200 µM,> 200 µM,26.2 µM,29.1 µM
46 µM,CC(/C=C/C(=O)NO[C@@H]1O[C@H](CO)[C@@H](O)[C@H](O)[C@H]1O)=C\[C@@H](C)C(=O)c1ccc(N(C)C)cc1,> 200 µM,> 200 µM,> 200 µM,> 100 µM,> 200 µM
78.8 µM,CNC(=O)/C=C/C(C)=C/[C@@H](C)C(=O)c1ccc(N(C)C)cc1,> 200 µM,> 200 µM,> 200 µM,8.14 µM,23.9 µM
> 100 µM,CC(/C=C/C(=O)O)=C\[C@@H](C)C(=O)c1ccc(N(C)C)cc1 [TRICHOSTATIC ACID],> 200 µM,> 200 µM,> 200 µM,86.6 µM,89.2 µM
> 100 µM,CC(=C/[C@@H](C)C(=O)c1ccc(N(C)C)cc1)/C=C/C(=O)O,> 200 µM,> 200 µM,> 200 µM,> 100 µM,> 200 µM
> 100 µM,CNc1ccc(C(=O)[C@](C)(O)/C=C(C)/C=C/C(N)=O)cc1,> 200 µM,> 200 µM,> 200 µM,> 100 µM,> 200 µM
> 100 µM,CC(/C=C/C(N)=O)=C\[C@@](C)(O)C(=O)c1ccc(N(C)C)cc1,> 200 µM,> 200 µM,> 200 µM,> 100 µM,> 200 µM
48.2 µM,CC(/C=C/C(=O)NO[C@H]1O[C@H](CO)[C@@H](O)[C@H](O)[C@H]1O)=C\[C@@H](C)C(=O)c1ccc(N(C)C)cc1,> 200 µM,> 200 µM,> 200 µM,> 100 µM,> 200 µM
0.38 µM,CC(/C=C/C(=O)NO)=C\[C@@H](C)C(=O)c1ccc(N(C)C)cc1 [TRICHOSTATIN],0.85 µM,0.96 µM,14.9 µM,0.16 µM,0.21 µM
